# US4551455A, “Method of treating high blood pressure using 6-[4-(1-imidazolyl)-phenyl]-5-methyl-3-oxo-tetrahydropyridazines” (A. Nattermann & Cie GmbH, priority 1982, dated 1985)
# Like-named read-outs stand apart in the source and are kept apart here.
# Key:
# anaesthetized dogs = test: blood pressure-lowering effect on anaesthetized dogs; assay type: in vivo, dog; conditions: for influence on blood pressure (in words): Table 2, anaesthetized dogs; for Pressure, Δ mmHg, diastolic / Pressure, Δ mmHg, systolic: anaesthetized dogs, 0.316 mg/kg intraduodenally, change in pressure
# Procedure: (§1) For investigation of the pharmacodynamic properties, the following methods (1) through (4) were employed.
# (2) The blood pressure-lowering effect on anaesthetized dogs was evaluated. The influence on the systolic and diastolic blood preessure of the subject compounds 6-[4-(1-imidazolyl)phenyl]-5-methyl-3-oxo-2,3,4,5-tetrahydropyridazine (A) and 6-[4-(2-methyl-1-imidazolyl)-phenyl]-5-methyl-3-oxo-2,3,4,5-tetrahydropyridazine (B) were studied on the anaesthetized dogs by intraduodenal administration.
# thrombin formation = test: reduction of thrombin formation in narcotized rats; assay type: in vivo, rat
# Procedure: as §1
# (4) The reduction of thrombin formation in narcotized rats was evaluated. The test of the reduction of thrombin formation by the substances of the present invention 6-[4-(1-imidazolyl)phenyl]-5-methyl-3-oxo-2,3,4,5-tetrahydropyridazine (A) and 6-[4-(2-methyl-1-imidazolyl)-phenyl]-5-methyl-3-oxo-2,3,4,5-[…] (B) in parallel with the reference substance acetylsalicylic acid (D) was carried out by oral administration to narcotized rats.
# normotensive Wistar rats = test: blood pressure-lowering effect on narcotized rats; assay type: in vivo, rat (male adult normotensive Wistar); conditions: for Average arterial pressure / Heart frequency: rats, 3.16 mg/kg orally, n = 5, narcotized 90 min after application; for Average arterial pressure: control 112.8 ± 4.8; for Heart frequency: control 307 ± 11
# Procedure: as §1
# (1) The blood pressure-lowering effect on narcotized rats was evaluated. For testing of the blood pressure-lowering effect, the invention substance 6-[4-(imidazolyl)phenyl]-5-methyl-3-oxo-2,3,4,5-tetrahydropyridazine (A) was administered in parallel with the reference substance 1-hydrazinophthalazine (hydralazine) (C) orally to groups of 5 male adult normotensive Wistar rats. Ninety minutes after application, the animal was narcotized with 75 mg/kg of intraperitoneal phenobarbital, and the trachea and the carotid artery were cannulated.
# [1] = system: collagen-induced thrombocyte aggregation; test: inhibition of collagen-induced thrombocyte aggregation in vitro (method of Born, modified); assay type: cell-based, human; conditions: read-out: IC50 (concentration that caused a 50% reduction of the aggregation)
# Procedure: as §1
# (3) The inhibition of collagen-induced thrombocyte aggregation in vitro was evaluated. The suppression of collagen-induced thrombocyte aggregation in vitro was carried out on thrombocyte-rich human plasma with the inventive substance 6-[4-(1-imidazolyl)-phenyl]-5-methyl-3-oxo-2,3,4,5-tetrahydropyridazine (A) in parallel with the reference substance acetylsalicyclic acid (D) according to the method of Born (Nature, 194, 927-929 (1962)) in modified form (simultaneous application). The concentration that caused a 50% reduction of the aggregation was defined as IC50 in Table 3 set forth below.
SMILES,influence on blood pressure (in words) (anaesthetized dogs),"Pressure, Δ mmHg, diastolic (anaesthetized dogs) [mmHg]","Pressure, Δ mmHg, systolic (anaesthetized dogs) [mmHg]",Reduction in % (thrombin formation) (thrombin formation; 10 mg/kg orally) [%],Average arterial pressure (normotensive Wistar rats) [mmHg],Heart frequency (normotensive Wistar rats) [beats/min.],"blood pressure-lowering effect on the rats (in words) (normotensive Wistar rats; Table 1, in comparison with hydralazine C)","IC50 ([1]; thrombocyte-rich human plasma, collagen-induced, simultaneous application) [nM]",Reduction in % (thrombin formation) (thrombin formation; 100 mg/kg orally) [%],IC50 ([1]; Homo sapiens) [nM]
"Cc1nccn1-c1ccc(C2=NNC(=O)CC2C)cc1 (stereo not shown) [Substance B, 6-[4-(2-methyl-1-imidazolyl)-phenyl]-5-methyl-3-oxo-2,3,4,5-tetrahydropyridazine]",strong influence on blood pressure,-43.80,-48.18,-48,–,–,–,–,–,–
"NNc1nncc2ccccc12 [Substance C, 1-hydrazinophthalazine, reference compound]",–,–,–,–,82.0 ± 6,356 ± 8,–,–,–,–
"CC1CC(=O)NN=C1c1ccc(-n2ccnc2)cc1 (stereo not shown) [Substance A, 6-[4-(1-imidazolyl)phenyl]-5-methyl-3-oxo-2,3,4,5-tetrahydropyridazine]",strong influence on blood pressure,-51.42,-51.77,-52,54.8 ± 8.9,415 ± 17,powerful blood pressure-lowering effect,2400,–,–
"CC(=O)Oc1ccccc1C(=O)O [Substance D, acetylsalicylic acid, reference compound]",–,–,–,–,–,–,–,–,-45,> 300000
